For one molecule, mortality results are on record in patent US10800794B2, “Heterocycle-substituted bicyclic azole pesticides” (priority 2015, dated 2020).

The data set concerns sweetpotato whitefly (Bemisia tabaci (Gennadius)). In words: Test D: control of sweetpotato whitefly through contact and/or systemic means, sprayed cotton plant infested with eggs. It counts as in vivo. As to conditions: sprayed at 50 ppm, assessed after 13 days at 28° C. The protocol: Test compounds were formulated using a solution containing 10% acetone, 90% water and 300 ppm X-77® Spreader Lo-Foam Formula non-ionic surfactant containing alkylarylpolyoxyethylene, free fatty acids, glycols and isopropanol (Loveland Industries, Inc. Greeley, Colo., USA). The formulated compounds were applied in 1 mL of liquid through a SUJ2 atomizer nozzle with ⅛ JJ custom body (Spraying Systems Co. Wheaton, Ill., USA) positioned 1.27 cm (0.5 inches) above the top of each test unit. Test compounds were sprayed at the rates indicated, and each test was replicated three times.
For evaluating control of the sweetpotato whitefly (Bemisia tabaci (Gennadius)) through contact and/or systemic means, the test unit consisted of a small open container with a 12-14-day-old cotton plant inside. Prior to the spray application, both cotyledons were removed from the plant, leaving one true leaf for the assay. Adult whiteflies were allowed to lay eggs on the plant and then were removed from the test unit. Cotton plants infested with at least 15 eggs were submitted to the test for spraying.
Test compounds were formulated and sprayed at 250 and/or 50 ppm. After spraying, the test units were allowed to dry for 1 hour. […] Each test unit was then visually assessed for insect mortality.

For the molecule `CN(C)C(=O)C(C)(C)NC(=O)c1csc2nc(-c3cncc(F)c3)cn12` [Compound 14], the mortality entry is “at least 80%”.
